“And” between values parts separate entries of the source, which are not always exact repeats. Equal values may be shown once. Residues, ends and D or L forms follow the SMILES beside them.

The test system of one series is strain 68J. In words: Growth of strain 68J with different carbon sources (BIOLOG GN). On the set-up: scale not given here. The note with it: relative values; 96-well plates (BIOLOG GN). Format: cell-based, Pantoea dispersa. The protocol:
The morphological, cultural and biochemical features of strain 68J were determined in tests using E. coli (Top 10), K. oxytoca (JMP4505), E. rhapontici (WAC2928) as positive/negative controls. Gram stain, fermentation, catalase activity, pigment observation, and Simon's citrate tests were conducted according to Singleton (1999, Bacteria in Biology, Biotechnology and Medicine (5th edition). Wiley, New York). Oxidase activity by Kovac's reagent, indole production by Ehrlich's indole test, methyl red response, Voges-Proskauer reaction in Clark and Lub's medium, urea hydrolysis in Christensen's urea, lysine decarboxylase, ornithine decarboxylase and gelatin liquefaction were tested as described by MacFaddin (1979, Biochemical Tests for Identification of Medical Bacteria. Williams & Wilkins, Baltimore). Morphology, capsules and motility were observed microscopically. Carbon source utilization was tested in 96-well plates (BIOLOG GN).

The next series deals with P. dispersa 68J. Briefly: Growth in BP medium with different sugars. Format: cell-based. The note with it: 2% sugar added to BP medium, 18 h incubation at 30°C. Here is the method:
Isomaltulose production was tested using cells grown in LB and in a basal peptone medium (BP, comprising 1% BBL gelysate peptone and 0.5% NaCl, adjusted to pH 7.0 prior to autoclaving). Glucose, fructose, sucrose, lactose, maltose or isomaltulose was added to the cooled media, from a filter-sterilised stock. The media containing 4% (w/v) sucrose are referred to as SLB and SBP respectively.
Inoculum of 100 μL from a culture grown for 12 h in LB medium was added to 25 mL growth medium in a 250 mL flask. After 18 h at 30° C. on a shaker at 225 rpm, OD600 was used to measure growth. Cultures were diluted with growth medium to OD600=1.50 (approximately half the cell density of a saturated culture in SLB). Aliquots of 1 mL were harvested by centrifugation at 5000×g for 10 min and washed three times with 0.1 M citrate/phosphate buffer (pH 6.0). The cell pellets were resuspended in 0.4 mL of 0.1 M citrate/phosphate buffer (pH 6.0) containing 50% sucrose (w/v). Culture supernatant was filtered through a 0.2 μm filter (Pall Acrodisc), and 0.1 mL was mixed with 0.4 mL of 0.1 M citrate/phosphate buffer (pH 6.0) containing 50% sucrose (w/v), for parallel testing of culture filtrate and harvested cells in the SI assay.

Series [1] concerns P. rubrum sucrose isomerase (SI). Conditions: Nagai et al., 1994; Véronèse and Perlot, 1998; cited from earlier work.
Series [2] has as its system K. plymuthica sucrose isomerase (SI). Conditions: Nagai et al., 1994; Véronèse and Perlot, 1998; cited from earlier work.
In series [3] the test system is P. mesoacidophila sucrose isomerase (SI). Conditions: Nagai et al., 1994; Véronèse and Perlot, 1998; cited from earlier work.
Series [4] concerns E. rhapontici sucrose isomerase (SI). Conditions: Nagai et al., 1994; Véronèse and Perlot, 1998; cited from earlier work.
Substrate in series [5]: OC[C@H]1O[C@@](CO)(O[C@H]2O[C@H](CO)[C@@H](O)[C@H](O)[C@H]2O)[C@@H](O)[C@@H]1O
Briefly: Sucrose isomerase kinetics, purified SI from Klebsiella sp. 14S (isomaltulose production), with or without glucose/fructose. It is filed as biochemical. The note with it: other: sucrose, pH 6.0, 30° C., Lineweaver and Burk. The protocol:
(§1) The pET24b vector introduces a carboxy-terminal 6×His tag (SEQ ID NO: 52) on expressed proteins, which were purified by adsorption to Ni-NTA agarose (Qiagen) and elution with 25 mM NaH2PO4, 150 mM NaCl, 125 mM imidazole buffer (pH8.0) following the manufacturer's instructions. For storage, the eluted solution was diluted with 50% glycerol. The purity of SI proteins was tested by SDS-PAGE as described below. A batch procedure using Ni-NTA agarose in suspension yielded predominantly (80-95%) SI with a background of several other protein bands. A procedure using Ni-NTA agarose in adsorption columns yielded preparations containing a single protein band. […]
(§2) Enzyme activities were measured by incubating 5 μl of purified enzyme with 95 μL of sucrose solution at a final concentration of 584 mM in 0.1 M citrate/phosphate buffer (pH 6.0) at 30° C. Sugar profiles in the reaction mix were analysed at intervals by CE as described previously. […]
(§3) SI activity was measured by incubating the purified enzyme with different sucrose concentrations (3, 6, 15, 58, 146, 292, 584, 877, 1169 and 1461 mM) under standard assay conditions, and also with addition of glucose, fructose or both to a final concentration of 277 mM. Data were analyzed according to the method of Lineweaver and Burk (Voet and Voet, 1995) to calculate Km and Vmax values.

Substrate in series [6]: OC[C@H]1O[C@@](CO)(O[C@H]2O[C@H](CO)[C@@H](O)[C@H](O)[C@H]2O)[C@@H](O)[C@@H]1O
Briefly: Sucrose isomerase kinetics, purified SI from P. dispersa 68J (isomaltulose production), with or without glucose/fructose. Conditions: other: sucrose, pH 6.0, 30° C., Lineweaver and Burk. Format: biochemical, Pantoea dispersa 68J. Here is the method:
as §1, §2, §3

2,3-butynediol came in with a Growth in the series with strain 68J of 1.

In the series on strain 68J, `C[N+](C)(C)CC(O)CC(=O)[O-]` (racemic) [D,L-carnitine] gave a Growth of −10. In turn, `CC(O)C(=O)O` (racemic) [D,L-lactic acid] yielded a Growth with strain 68J of 365. In turn, `O=P(O)(O)OCC(O)CO` (racemic) [D,L-α-glycerol phosphate] yielded a Growth in the series on strain 68J of −8. With `NCCO` [2-amino ethanol], in the series with strain 68J, the Growth is listed as −4. As to `OC[C@@H](O)C(O)[C@H](O)CO` [D-arabitol], in the series with strain 68J, the Growth is −11. The same measure, in the same setting: for `O=C1O[C@@H]([C@H](O)CO)[C@H](O)[C@H]1O` [D-galactonic acid lactone] the value was −7; for `O=C(O)[C@H]1OC(O)[C@H](O)[C@@H](O)[C@@H]1O` (stereo partly drawn) [D-glucoronic acid], 6; for `N[C@@H](C(=O)O)[C@@H](O)[C@H](O)[C@H](O)CO` [D-glucosaminic acid], 1.

`OC[C@H]1O[C@H](OCC2O[C@@H](O)[C@H](O)[C@@H](O)[C@@H]2O)[C@H](O)[C@@H](O)[C@H]1O` (stereo partly drawn) [D-melibiose] came in with a Growth in the series with strain 68J of 6. In the series on strain 68J, `OC[C@H]1O[C@H](OC[C@H]2O[C@H](O[C@]3(CO)O[C@H](CO)[C@@H](O)[C@@H]3O)[C@H](O)[C@@H](O)[C@@H]2O)[C@H](O)[C@@H](O)[C@H]1O` [D-raffinose] gave a Growth of 330. The molecule `OC[C@H]1O[C@H](O[C@H]2O[C@H](CO)[C@@H](O)[C@H](O)[C@H]2O)[C@H](O)[C@@H](O)[C@@H]1O` [D-trehalose] displayed a Growth with strain 68J of 619. `O=P(O)(O)O[C@H]1O[C@H](CO)[C@@H](O)[C@H](O)[C@H]1O` [Glucose-1-phosphate] registered a Growth with strain 68J of 356. In turn, `NCC(=O)N[C@@H](CC(=O)O)C(=O)O` [Glycyl-L-aspatic acid] (H-Gly-Asp-OH) returned a Growth in the series with strain 68J of −8. In the case of `C[C@@H](O)[C@H](N)C(=O)O` [L-theronine], in the series with strain 68J, the Growth was −12. In the case of `OC[C@H]1O[C@H](O[C@H]2[C@H](O)[C@@H](O)[C@H](O)O[C@@H]2CO)[C@H](O)[C@@H](O)[C@@H]1O` [Maltose], in the series with P. dispersa 68J, the “effect on growth of P. dispersa 68J” value is reported as “little effect”.

As to `OC[C@H]1O[C@@](CO)(O[C@H]2O[C@H](CO)[C@@H](O)[C@H](O)[C@H]2O)[C@@H](O)[C@@H]1O` [Sucrose], in the series with P. dispersa 68J, the “effect on growth of P. dispersa 68J” value was “supported faster growth”.

In turn, `O=C(CO)[C@@H](O[C@H]1O[C@H](CO)[C@@H](O)[C@H](O)[C@H]1O)[C@H](O)[C@H](O)CO` [Turanose] came in with a Growth with strain 68J of 23. On the same count and under the same terms, for `OC[C@H]1O[C@@H]2O[C@H]3[C@H](O)[C@@H](O)[C@@H](O[C@H]4[C@H](O)[C@@H](O)[C@@H](O[C@H]5[C@H](O)[C@@H](O)[C@@H](O[C@H]6[C@H](O)[C@@H](O)[C@@H](O[C@H]7[C@H](O)[C@@H](O)[C@@H](O[C@H]1[C@H](O)[C@H]2O)O[C@@H]7CO)O[C@@H]6CO)O[C@@H]5CO)O[C@@H]4CO)O[C@@H]3CO` [a-cyclodextrin] the value was 9; for `O=C(O)/C=C(/CC(=O)O)C(=O)O` [cis-aconitic acid], 122.

As for `OC[C@H]1OC(O)(CO)[C@@H](O)[C@@H]1O` (stereo partly drawn) [fructose], the Inhibition of activity entry in series [1], in series [2], in series [3] and in series [4] was “not” each time. In the series with strain 68J, `OC[C@@H](O)[C@@H](O)CO` [i-erythritol] gave a Growth of 0.

In the case of `OC[C@H]1O[C@@H](O[C@H]2[C@H](O)[C@@H](O)C(O)O[C@@H]2CO)[C@H](O)[C@@H](O)[C@H]1O` (stereo partly drawn) [lactose], the “effect on growth of P. dispersa 68J” value in the series with P. dispersa 68J is recorded as “little effect”.

As to `O[C@H]1[C@H](O)[C@@H](O)[C@H](O)[C@@H](O)[C@H]1O` [m-inositol], the Growth in the series with strain 68J was found to be 611. As for `O=C(O)CCC(=O)C(=O)O` [α-keto glutanic acid], the Growth in the series with strain 68J was 91. On the same count and under the same terms, for `CO[C@@H]1O[C@H](CO)[C@@H](O)[C@H](O)[C@H]1O` [β-methyl D-glucosidase] the value was 684; for `O=C(O)Cc1ccc(O)cc1` [ρ-hydroxy phenylacetic acid], 5. Tween40 returned a Growth in the series on strain 68J of 25.

The molecule α-D-lactose lactulose returned a Growth in the series with strain 68J of 12.

B1: Klebsiella sp. 14S sucrose isomerase (SI), carboxy-terminal 6×His tag (SEQ ID NO: 52) (Klebsiella planticola) (protein)
chain: APSVNQNIHVHKESEYPAWWKEAVFYQIYPRSFKDTNDDGIGDIRGIIEKLDYLKSLGIDAIWINPHYDSPNTDNGYDISNYRQIMKEYGTMEDFDNLVAEMKKRNMRLMIDVVINHTSDQHPWFIQSKSDKNNPYRDYYFWRDGKDNQPPNNYPSFFGGSAWQKDAKSGQYYLHYFARQQPDLNWDNPKVREDLYAMLRFWLDKGVSSMRFDTVATYSKIPGFPNLTPEQQKNFAEQYTMGPNIHRYIQEMNRKVLSRYDVATAGEIFGVPLDRSSQFFDPRRHELNMAFMFDLIRLDRDSNERWRHKSWSLSQFRQIISKMDVTVGKYGWNTFFLDNHDNPRAVSHFGDDRPQWREASAKALATITLTQRATPFIYQGSELGMTNYPFRQLNEFDDIEVKGFWQDYVQSGKVTATEFLDNVRLTSRDNSRTPFQWNDTLNAGFTRGKPWFHINPNYVEINAEREETREDSVLNYYKKMIQLRHHIPALVYGAYQDLNPQDNTVYAYTRTLGNERYLVVVNFKEYPVRYTLPANDAIEEVVIDTQQQATAPHSTSLSLSPWQAGVYKLR
Consider B1, for which, in series [5], the Km came out at 81.6 mM and the Vmax came out at 99.8 U mg^−1.

B2: Pantoea dispersa 68J sucrose isomerase (SI), mature, SEQ ID NO: 10, carboxy-terminal 6×His tag (SEQ ID NO: 52) (Pantoea dispersa) (protein)
chain: ATNIQKSADFPIWWKQAVFYQIYPRSFKDSNGDGIGDIPGIIEKLDYLKMLGVDAIWINPHYESPNTDNGYDISDYRKIMKEYGSMADFDRLVAEMNKRGMRLMIDIVINHTSDRHRWFVQSRSGKDNPYRDYYFWRDGKQGQAPNNYPSFFGGSAWQLDKQTDQYYLHYFAPQQPDLNWDNPKVRAELYDILRFWLDKGVSGLRFDTVATFSKIPGFPDLSKAQLKNFAEAYTEGPNIHKYIHEMNRQVLSKYNVATAGEIFGVPVSAMPDYFDRRREELNIAFTFDLIRLDRYPDQRWRRKPWTLSQFRQVISQTDRAAGEFGWNAFFLDNHDNPRQVSHFGDDSPQWRERSAKALATLLLTQRATPFIFQGAELGMTNYPFKNIEEFDDIEVKGFWNDYVASGKVNAAEFLQEVRMTSRDNSRTPMQWNDSVNAGFTQGKPWFHLNPNYKQINAAREVNKPDSVFSYYRQLINLRHQIPALTSGEYRDLDPQNNQVYAYTRILDNEKYLVVVNFKPEQLHYALPDNLTIASSLLENVHQPSLQENASTLTLAPWQAGIYKLN
Consider B2, for which, in series [6], the Km is 46.6 mM and 47 mM; the Vmax came to 636.9 U mg^−1.

What is called Km is the substrate concentration at which the rate is half of its maximum.

The values above are taken from patent US7977082B2, “Isomaltulose synthases, polynucleotides encoding them and uses therefor” (The University of Queensland of St. Lucia, priority 2001, dated 2011).
